# Experimental data taken from patent US20080274097A1, “BOOSTER FOR THERAPY OF DISEASES WITH ULTRASOUND AND PHARMACEUTICAL LIQUID COMPOSITION CONTAINING THE SAME” (priority 1991, published 2008).
# Tested on: artificial thrombosis
# Assay: Fibrinolysis of artificial thrombosis (Chandler's method) with ultrasonic catheter
# Design: species or system human
# Details: for time for achieving 20% fibrinolysis: FIG. 4, thrombosis from blood of one person, urokinase 1200 IU/ml
# Procedure: An artificial thrombosis was formed by Chandler's method. Blood (1 ml) that was collected from healthy humans (two persons) was entered into a flexible tube (inside diameter 3 mm, length 265 mm) and thereto was added calcium chloride, and then the tube was made a loop like shape, which was rotated at 12 rpm for 20 minutes to give an artificial thrombosis model.
# A ceramic ultrasonic element (width 2 mm, length 5 mm, thickness 1 mm) was inserted into the tip of a catheter (diameter 2 mm), and an oscillating element was connected to an oscillator provided outside with a fine connector passed through the catheter. A fine tube for pouring a test solution was provided at an opening opposite to the opening of the catheter end.
# The artificial thrombosis prepared above was added to a test tube together with blood, and the ultrasonic catheter was inserted into the test tube so that the end of the catheter was set close to the portion of the artificial thrombosis (at a distance of about 5 mm), and to the test tube a mixture of urokinase and a booster prepared in Example 1 was added at a rate of 1 ml per minute, wherein urokinase (concentration 1200 IU/ml) and the booster were mixed immediately before pouring at a mixing ration of 1:1 by weight. The mixture was refluxed while keeping the volume of the test solution at a constant level by removing excess volume of the solution by suction. The ultrasound (170 KHz) was exposed to the mixture by a pulse method (exposed for 2 seconds and stopped for 4 seconds) for 2 minutes (total exposing time 40 seconds). After the exposure, the ultrasonic catheter was removed from the test tube, and the mixture was incubated at 37 degrees C. for 5 to 120 minutes, washed with a physiological saline solution several times and dried overnight. Thereafter, the dried mixture was weighed. As a control, the above was repeated by using only a physiological saline solution.
# The rate of fibrinolysis was calculated by the following equation: […]
# The results are shown in the accompanying FIGS. 4 and 5 wherein there are shown in average of twice tests.
substance,measurement,setting,value
urokinase,time for achieving 20% fibrinolysis,"with exposure of ultrasound (170 KHz, pulse, 2 minutes)",30 min
same,time for achieving 20% fibrinolysis,without exposure of ultrasound,45 min
same,treatment time at which 50% fibrinolysis was achieved,"FIG. 5, thrombosis from blood of another person, with exposure of ultrasound, energy reduced by 15%",60 min
